Data reported in ChEMBL document CHEMBL5696441 (Nat Chem Biol, 2011).

How the values were obtained:
[1] = molecular target: Serine/threonine-protein kinase B-raf (Homo sapiens) (UniProt P15056); assay: Inhibition of BRAF (unknown origin) assessed as remaining activity at 1 uM by Kinome scan method relative to control
[2] = molecular target: Calcium/calmodulin-dependent protein kinase type II subunit delta (Homo sapiens) (UniProt Q13557); assay: Inhibition of CAMK2D (unknown origin) assessed as remaining activity at 1 uM by Kinome scan method relative to control
[3] = molecular target: Casein kinase I isoform gamma-3 (Homo sapiens) (UniProt Q9Y6M4); assay: Inhibition of CSNK1G3 (unknown origin) assessed as remaining activity at 1 uM by Kinome scan method relative to control
[4] = molecular target: MAP kinase-activated protein kinase 5 (Homo sapiens) (UniProt Q8IW41); assay: Inhibition of MAPKAPK5 (unknown origin) assessed as remaining activity at 1 uM by Kinome scan method relative to control
[5] = molecular target: Serine/threonine-protein kinase PAK 6 (Homo sapiens) (UniProt Q9NQU5); assay: Inhibition of PAK6 (unknown origin) assessed as remaining activity at 1 uM by Kinome scan method relative to control
[6] = molecular target: Serine/threonine-protein kinase N1 (Homo sapiens) (UniProt Q16512); assay: Inhibition of PKN1 (unknown origin) assessed as remaining activity at 1 uM by Kinome scan method relative to control
[7] = tested on: Proto-oncogene tyrosine-protein kinase receptor Ret (Homo sapiens), P07949 [V804L]; assay: Inhibition of RET V804L (unknown origin) assessed as remaining activity at 1 uM by Kinome scan method relative to control
[8] = molecular target: Activin receptor type-1B (Homo sapiens) (UniProt P36896); assay: Inhibition of human ACVR1B assessed as residual activity at 1 uM using RBER-CHKtide as substrate in presence of 33P-ATP by ProQinase assay relative to control
[9] = molecular target: 5'-AMP-activated protein kinase catalytic subunit alpha-1 (Homo sapiens) (UniProt Q13131); assay: Inhibition of human AMPKalpha1 assessed as residual activity at 1 uM using RBER-CHKtide as substrate in presence of 33P-ATP by ProQinase assay relative to control
[10] = molecular target: Calcium/calmodulin-dependent protein kinase type II subunit beta (Homo sapiens) (UniProt Q13554); assay: Inhibition of human CAMK2B assessed as residual activity at 1 uM using RBER-CHKtide as substrate in presence of 33P-ATP by ProQinase assay relative to control
[11] = molecular target: Macrophage colony-stimulating factor 1 receptor (Homo sapiens) (UniProt P07333); assay: Inhibition of human CSF1R assessed as residual activity at 1 uM using polyEY as substrate in presence of 33P-ATP by ProQinase assay relative to control
[12] = molecular target: Death-associated protein kinase 2 (Homo sapiens) (UniProt Q9UIK4); assay: Inhibition of human DAPK2 assessed as residual activity at 1 uM using RB-S6P as substrate in presence of 33P-ATP by ProQinase assay relative to control
[13] = molecular target: T1, Ephrin type-A receptor 3 (Homo sapiens) (UniProt P29320); assay: Inhibition of human EPHA3 assessed as residual activity at 1 uM using polyEY as substrate in presence of 33P-ATP by ProQinase assay relative to control
T1 sequence (whole entry): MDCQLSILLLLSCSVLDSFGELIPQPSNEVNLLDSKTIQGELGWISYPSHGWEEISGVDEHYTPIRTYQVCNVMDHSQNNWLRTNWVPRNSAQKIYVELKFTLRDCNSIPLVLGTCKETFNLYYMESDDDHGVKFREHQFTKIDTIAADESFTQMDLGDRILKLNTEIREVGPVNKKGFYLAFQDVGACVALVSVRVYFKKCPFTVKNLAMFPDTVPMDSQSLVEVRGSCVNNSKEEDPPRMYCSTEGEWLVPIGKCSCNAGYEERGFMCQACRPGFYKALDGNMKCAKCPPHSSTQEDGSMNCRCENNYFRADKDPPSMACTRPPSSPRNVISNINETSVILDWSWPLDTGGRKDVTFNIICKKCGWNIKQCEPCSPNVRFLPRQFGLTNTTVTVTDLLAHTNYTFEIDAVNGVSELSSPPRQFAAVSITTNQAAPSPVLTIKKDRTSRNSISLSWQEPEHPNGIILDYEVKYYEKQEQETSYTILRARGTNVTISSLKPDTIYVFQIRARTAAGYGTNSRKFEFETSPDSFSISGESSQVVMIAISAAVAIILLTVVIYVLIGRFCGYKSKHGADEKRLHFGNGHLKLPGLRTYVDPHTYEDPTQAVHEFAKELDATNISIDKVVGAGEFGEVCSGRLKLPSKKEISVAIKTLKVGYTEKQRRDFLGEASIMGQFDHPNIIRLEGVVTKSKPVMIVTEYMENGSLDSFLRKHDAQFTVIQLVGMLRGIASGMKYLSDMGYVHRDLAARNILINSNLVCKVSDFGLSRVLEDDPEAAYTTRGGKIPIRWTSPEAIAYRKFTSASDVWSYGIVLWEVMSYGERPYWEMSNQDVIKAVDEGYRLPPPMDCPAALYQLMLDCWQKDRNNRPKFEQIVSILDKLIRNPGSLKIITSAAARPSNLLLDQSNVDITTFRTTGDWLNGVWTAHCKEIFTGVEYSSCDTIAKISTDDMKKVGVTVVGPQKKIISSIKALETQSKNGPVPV

[14] = molecular target: Focal adhesion kinase 1 (Homo sapiens) (UniProt Q05397); assay: Inhibition of human FAK (2 to 1052 residues) assessed as residual activity at 1 uM using polyEY as substrate in presence of 33P-ATP by ProQinase assay relative to control
[15] = tested on: Receptor-type tyrosine-protein kinase FLT3 (Homo sapiens), P36888 [D835Y]; assay: Inhibition of human […] mutant assessed as residual activity at 1 uM using Poly(Ala,Glu,Lys,Tyr)6:2:5:1 as substrate in presence of 33P-ATP by ProQinase assay relative to control
[16] = tested on: Platelet-derived growth factor receptor alpha (Homo sapiens), P16234 [T674I]; assay: Inhibition of human PDGFRalpha T674I mutant assessed as residual activity at 1 uM using Poly(Ala,Glu,Lys,Tyr)6:2:5:1 as substrate in presence of 33P-ATP by ProQinase assay relative to control
[17] = molecular target: Ribosomal protein S6 kinase beta-2 (Homo sapiens) (UniProt Q9UBS0); assay: Inhibition of human S6K-beta assessed as residual activity at 1 uM using RBER-CHKtide as substrate in presence of 33P-ATP by ProQinase assay relative to control
[18] = Anti-inflammatory activity against human derived high respond PBMC cells assessed as inhibition in stimulated IL-17A cytokine release incubated for 2 hrs in the presence of LPS/SEB/aCD28 by Luminex based sandwich immunoassay; format: functional, cell-based
CYP1A = CYP1A (Homo sapiens, UniProt P04798+P05177); assay: Inhibition of CYP1A (unknown origin) at 10 uM relative to control; format: ADME, protein assay

Serine/threonine-protein kinase PAK 6 (Homo sapiens), sequence (Q9NQU5 whole entry, looked up): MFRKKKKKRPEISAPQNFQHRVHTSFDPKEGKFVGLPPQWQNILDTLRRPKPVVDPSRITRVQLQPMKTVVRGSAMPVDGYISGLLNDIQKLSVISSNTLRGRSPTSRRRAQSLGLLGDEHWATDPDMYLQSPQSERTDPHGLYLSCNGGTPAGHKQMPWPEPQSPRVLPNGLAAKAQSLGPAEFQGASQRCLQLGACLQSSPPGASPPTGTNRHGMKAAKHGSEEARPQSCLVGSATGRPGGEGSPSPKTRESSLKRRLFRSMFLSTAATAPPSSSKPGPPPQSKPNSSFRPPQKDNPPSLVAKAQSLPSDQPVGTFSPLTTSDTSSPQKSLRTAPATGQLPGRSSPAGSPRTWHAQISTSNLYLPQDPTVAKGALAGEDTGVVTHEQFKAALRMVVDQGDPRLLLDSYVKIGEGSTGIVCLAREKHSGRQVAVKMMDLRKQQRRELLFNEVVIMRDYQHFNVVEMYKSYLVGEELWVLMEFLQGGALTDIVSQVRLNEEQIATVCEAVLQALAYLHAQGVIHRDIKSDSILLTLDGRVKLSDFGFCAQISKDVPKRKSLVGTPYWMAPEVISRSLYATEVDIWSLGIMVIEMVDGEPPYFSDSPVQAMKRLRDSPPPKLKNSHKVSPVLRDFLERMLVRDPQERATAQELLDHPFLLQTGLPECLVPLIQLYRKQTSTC
Macrophage colony-stimulating factor 1 receptor (Homo sapiens), sequence (P07333 whole entry): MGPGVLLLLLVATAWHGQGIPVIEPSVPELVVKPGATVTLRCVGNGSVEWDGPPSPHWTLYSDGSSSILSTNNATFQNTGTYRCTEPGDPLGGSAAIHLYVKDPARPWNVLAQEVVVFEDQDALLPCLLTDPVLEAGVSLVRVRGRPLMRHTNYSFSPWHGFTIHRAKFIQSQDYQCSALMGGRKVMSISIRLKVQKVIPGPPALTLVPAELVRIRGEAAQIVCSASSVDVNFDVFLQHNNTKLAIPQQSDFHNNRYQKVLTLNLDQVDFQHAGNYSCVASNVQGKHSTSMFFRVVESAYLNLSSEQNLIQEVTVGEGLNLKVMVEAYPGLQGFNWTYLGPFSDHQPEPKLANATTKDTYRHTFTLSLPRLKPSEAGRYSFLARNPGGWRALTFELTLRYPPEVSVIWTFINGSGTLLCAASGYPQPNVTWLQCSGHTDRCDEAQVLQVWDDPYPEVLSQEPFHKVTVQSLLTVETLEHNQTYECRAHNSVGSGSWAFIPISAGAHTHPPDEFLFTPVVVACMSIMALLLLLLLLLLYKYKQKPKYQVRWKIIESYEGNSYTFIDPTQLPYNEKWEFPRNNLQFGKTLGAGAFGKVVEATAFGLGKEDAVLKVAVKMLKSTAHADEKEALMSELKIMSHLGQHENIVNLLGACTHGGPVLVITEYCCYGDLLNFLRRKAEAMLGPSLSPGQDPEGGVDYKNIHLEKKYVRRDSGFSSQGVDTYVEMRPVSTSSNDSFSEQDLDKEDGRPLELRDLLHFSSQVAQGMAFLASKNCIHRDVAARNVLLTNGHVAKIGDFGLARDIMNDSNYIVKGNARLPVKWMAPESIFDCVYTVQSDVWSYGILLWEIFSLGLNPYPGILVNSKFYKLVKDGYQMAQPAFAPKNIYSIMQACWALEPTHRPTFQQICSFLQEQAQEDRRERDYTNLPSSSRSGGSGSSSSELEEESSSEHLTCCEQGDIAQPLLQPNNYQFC
Focal adhesion kinase 1 (Homo sapiens), sequence (Q05397 2-1052 limits assumed): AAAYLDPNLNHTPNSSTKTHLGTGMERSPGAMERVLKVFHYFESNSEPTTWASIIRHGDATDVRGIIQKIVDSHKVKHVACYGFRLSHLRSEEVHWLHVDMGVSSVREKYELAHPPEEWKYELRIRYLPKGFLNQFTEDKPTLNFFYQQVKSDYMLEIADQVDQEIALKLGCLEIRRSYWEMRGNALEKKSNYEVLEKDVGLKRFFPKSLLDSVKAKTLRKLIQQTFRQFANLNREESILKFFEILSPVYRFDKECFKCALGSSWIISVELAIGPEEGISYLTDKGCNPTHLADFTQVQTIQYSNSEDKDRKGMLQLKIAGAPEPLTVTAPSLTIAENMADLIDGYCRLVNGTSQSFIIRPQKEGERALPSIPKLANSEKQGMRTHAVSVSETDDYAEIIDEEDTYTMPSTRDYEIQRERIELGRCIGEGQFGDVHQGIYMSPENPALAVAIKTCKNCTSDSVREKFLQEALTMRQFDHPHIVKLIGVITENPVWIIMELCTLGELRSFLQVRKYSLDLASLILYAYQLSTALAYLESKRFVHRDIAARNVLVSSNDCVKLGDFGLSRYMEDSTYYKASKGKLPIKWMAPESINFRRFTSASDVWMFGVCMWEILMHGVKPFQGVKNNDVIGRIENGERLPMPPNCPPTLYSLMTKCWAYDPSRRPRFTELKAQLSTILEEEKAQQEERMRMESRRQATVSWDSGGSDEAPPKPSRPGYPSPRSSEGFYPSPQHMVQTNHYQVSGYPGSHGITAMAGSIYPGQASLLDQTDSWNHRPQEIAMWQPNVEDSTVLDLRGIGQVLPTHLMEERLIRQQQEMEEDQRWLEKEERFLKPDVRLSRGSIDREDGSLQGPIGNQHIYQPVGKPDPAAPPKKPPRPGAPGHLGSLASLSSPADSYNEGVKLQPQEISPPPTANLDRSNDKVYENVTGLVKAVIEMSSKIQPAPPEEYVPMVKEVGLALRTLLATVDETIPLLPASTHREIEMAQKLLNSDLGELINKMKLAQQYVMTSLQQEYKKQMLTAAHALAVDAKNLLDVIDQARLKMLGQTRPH
Serine/threonine-protein kinase N1 (Homo sapiens), sequence (Q16512 2-942 limits assumed): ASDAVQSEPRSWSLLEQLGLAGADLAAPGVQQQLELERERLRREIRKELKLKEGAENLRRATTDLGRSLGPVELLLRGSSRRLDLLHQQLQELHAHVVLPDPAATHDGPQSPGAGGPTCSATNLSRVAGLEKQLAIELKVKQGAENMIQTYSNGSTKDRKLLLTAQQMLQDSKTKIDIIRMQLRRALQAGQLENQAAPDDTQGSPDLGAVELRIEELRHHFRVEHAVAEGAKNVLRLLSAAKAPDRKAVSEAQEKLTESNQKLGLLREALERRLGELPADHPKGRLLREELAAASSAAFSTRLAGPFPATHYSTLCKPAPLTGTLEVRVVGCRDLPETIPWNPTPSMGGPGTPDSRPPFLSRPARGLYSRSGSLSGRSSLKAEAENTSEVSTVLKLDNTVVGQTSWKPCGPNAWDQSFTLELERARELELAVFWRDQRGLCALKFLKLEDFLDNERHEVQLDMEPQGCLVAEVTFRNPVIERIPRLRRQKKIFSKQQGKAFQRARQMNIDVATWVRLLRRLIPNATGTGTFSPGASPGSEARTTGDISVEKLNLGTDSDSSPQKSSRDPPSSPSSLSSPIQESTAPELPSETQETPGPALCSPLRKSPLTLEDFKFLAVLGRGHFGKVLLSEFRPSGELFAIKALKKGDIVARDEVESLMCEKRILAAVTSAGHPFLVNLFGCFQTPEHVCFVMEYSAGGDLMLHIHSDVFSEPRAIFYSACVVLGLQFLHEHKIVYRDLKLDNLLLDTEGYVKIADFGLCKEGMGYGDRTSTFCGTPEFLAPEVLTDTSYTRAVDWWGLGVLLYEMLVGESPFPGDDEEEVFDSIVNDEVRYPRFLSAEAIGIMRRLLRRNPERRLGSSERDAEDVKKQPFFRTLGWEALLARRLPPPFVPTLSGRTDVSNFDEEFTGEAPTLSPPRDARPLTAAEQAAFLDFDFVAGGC
Activin receptor type-1B (Homo sapiens), sequence (P36896 whole entry): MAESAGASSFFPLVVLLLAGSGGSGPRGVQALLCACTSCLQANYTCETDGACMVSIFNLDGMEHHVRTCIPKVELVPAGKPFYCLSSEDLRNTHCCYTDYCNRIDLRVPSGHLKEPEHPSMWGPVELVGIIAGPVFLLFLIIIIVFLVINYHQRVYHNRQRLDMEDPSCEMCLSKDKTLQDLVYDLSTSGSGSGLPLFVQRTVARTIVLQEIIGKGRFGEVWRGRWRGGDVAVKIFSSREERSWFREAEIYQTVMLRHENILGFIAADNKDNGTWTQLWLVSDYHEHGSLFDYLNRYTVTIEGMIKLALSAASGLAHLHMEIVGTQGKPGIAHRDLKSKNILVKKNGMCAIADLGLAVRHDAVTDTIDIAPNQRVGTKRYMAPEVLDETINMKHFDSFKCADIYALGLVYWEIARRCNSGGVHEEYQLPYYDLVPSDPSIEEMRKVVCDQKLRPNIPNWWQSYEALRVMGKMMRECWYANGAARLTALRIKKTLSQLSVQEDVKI
5'-AMP-activated protein kinase catalytic subunit alpha-1 (Homo sapiens), sequence (Q13131 whole entry, looked up): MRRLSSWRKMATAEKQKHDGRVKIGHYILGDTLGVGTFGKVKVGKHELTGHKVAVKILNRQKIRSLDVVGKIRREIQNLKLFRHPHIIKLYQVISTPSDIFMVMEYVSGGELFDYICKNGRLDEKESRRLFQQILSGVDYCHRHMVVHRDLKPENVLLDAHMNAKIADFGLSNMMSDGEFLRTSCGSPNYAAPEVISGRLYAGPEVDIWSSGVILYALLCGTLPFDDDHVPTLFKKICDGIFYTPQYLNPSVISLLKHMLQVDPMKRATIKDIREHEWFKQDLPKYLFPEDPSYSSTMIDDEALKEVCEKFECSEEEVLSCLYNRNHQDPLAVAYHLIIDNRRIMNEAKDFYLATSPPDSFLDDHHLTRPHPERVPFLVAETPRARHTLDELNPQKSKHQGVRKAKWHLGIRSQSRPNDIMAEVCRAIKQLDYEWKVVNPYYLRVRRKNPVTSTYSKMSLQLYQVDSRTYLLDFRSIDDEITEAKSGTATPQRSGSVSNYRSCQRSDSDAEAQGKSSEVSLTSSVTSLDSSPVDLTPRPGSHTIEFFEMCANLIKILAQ

Which Activity [1] does the source give for `O=C1c2ccc(Nc3ccc(F)cc3F)cc2CCc2ccc(OC[C@H](O)CO)cc21` [Skepinone-L] here?
The Activity was 100%.

And the Activity [2]?
Its Activity is 100%.

What about the Activity [3] of the same molecule?
The Activity was 100%.

And the Activity [4]?
Its Activity is 100%.

What about the Activity [5] of the same molecule?
Its Activity is 99%.

And the Activity [6]?
Its Activity is 91%.

And the Activity [7]?
The Activity was 100%.

And the Activity [8]?
Its Activity is 77%.

And the Activity [9]?
The Activity was 84%.

What about the Activity [10] of the same molecule?
Its Activity is 86%.

And the Activity [11]?
The Activity was 106%.

What about the Activity [12] of the same molecule?
Its Activity is 88%.

And the Activity [13]?
Its Activity is 107%.

What about the Activity [14] of the same molecule?
The Activity was 113%.

And the Activity [15]?
Its Activity is 101%.

What about the Activity [16] of the same molecule?
The Activity was 97%.

And the Activity [17]?
The Activity was 89%.

And the IC50 [18]?
The IC50 was 0.42 µM.

What about the inhibition at 10 µM (CYP1A) of the same molecule?
The inhibition at 10 µM was -19%.
